Results reported in patent US20030054988A1, “Modified plasminogen related peptide fragments and their use as angiogenesis inhibitors” (priority 2000, published 2003).

Assays:
HUVEC = HUVEC proliferation in response to mitogenic stimulation; assay type: cell-based, human
Description: The anti-proliferative effects of the modified peptide fragments on endothelial cells in response to different mitogenic stimulation were also examined. The assay used in these experiments is described by Cao et al. in J. Biol. Chem. 1997 272(36):22924-22928. The modified peptide fragment BMS-291102 (SEQ ID NO: 2) was an extremely potent inhibitor of bFGF-elicited HUVEC proliferation.

[1] = test system: human umbilical vein endothelial cell (HUVEC); test: bFGF-induced HUVEC migration; assay type: cell-based
Description: (§1) The assay used in these experiments is described by Ji et al. in Biochem. Biophys. Res. Commun. 1998 247:414-419. […] In addition, the modified peptide fragment BMS-291242 (SEQ ID NO: 12) was an extremely potent inhibitor of bFGF-induced HUVEC migration.

[2] = test system: endothelial cells in the matrigel plug; test: In vivo Matrigel plug angiogenesis model; details: 100 μM/plug, peptide embedded in matrigel, bFGF stimulation, nude mice
Protocol: Modified peptide fragments of the present invention were also evaluated in the matrigel plug model to determine their in vivo anti-angiogenic activities. To minimize the effects caused by differential pharmacokinetic properties of these compounds, the matrigel was prepared together with these peptides and the mixture was implanted into nude mice.
MATRIGEL was mixed with basic fibroblast growth factors at a final concentration of 300 μg/ml. Peptide fragments at selected doses were embedded with the MATRIGEL mixture and injected subcutaneously into mice. The animals were allowed to grow for 7 days. The plugs were then excised and the number of endothelial cells in the plug were examined histologically.

[3] = test system: human umbilical vein endothelial cell (HUVEC); test: VEGF-induced HUVEC migration; assay type: cell-based; details: VEGF-induced/stimulated; read-out: inhibition of VEGF-induced HUVEC migration (potency class)
Description: as §1

[4] = bFGF-induced, read-out: inhibition of bFGF-induced HUVEC migration (potency class)

Row | Sequence | IC50 [1, 4] | reduction of number of endothelial cells in matrigel plug / inhibition of bFGF-elicited in vivo angiogenesis [2] | IC50 [3] | other results
1 | AQDWAAQEPHRHSIFTPETNPRAGLEKNYA [BMS-291242] | < 10 nM | significantly inhibited | – | anti-proliferative activity on endothelial cells (HUVEC; mitogenic stimulus not given): moderate anti-proliferative activity
2 | NYARNPDGDVGGPWAY [BMS-291203, Ac-NYARNPDGDVGGPWAY-NH2] | – | effectively reduced the number of endothelial cells | – | –
3 | NYARNPDGDVGGPWAYTTNPRKLYDYADVPQA [BMS-291245] | – | significantly inhibited | – | –
4 | TTNPRKLYDYADVPQA [BMS-291205, Ac-TTNPRKLYDYADVPQA-NH2] | – | – | < 100 nM | IC50 ([1]; stimulus not given, presumably bFGF, read-out: IC50, marginal inhibitory activity (HUVEC migration)): 1000 nM
5 | VTGTPAQDWAAQEPHR [BMS-291102, Ac-VTGTPAQDWAAQEPHR-NH2] | – | effectively reduced the number of endothelial cells | – | IC50 (HUVEC; bFGF-elicited, read-out: inhibition of bFGF-elicited HUVEC proliferation (potency class)): < 10 nM
6 | WAAQEPHRHSIFTPET [BMS-291209, Ac-WAAQEPHRHSIFTPET-NH2] | < 100 nM | – | < 10 nM | –
